Test results from US8708045B2, “Multifunctional boronic acid crosslinking agents and associated methods” (Halliburton Energy Services, Inc., priority 2010, dated 2014).

Test: Visual solubility of 4-vinylphenyl boronic acid with sorbitol as solubilizing agent
Type: physicochemical
Procedure: In this example, sorbitol was used as an illustrative solubilizing agent to improve the solubility of 4-vinylphenyl boronic acid. A stock solution of 20 g of sorbitol in 200 mL of deionized water was prepared to give a sorbitol concentration of 0.55 M. In several plastic sealable containers was placed 11-15 mg of the boronic acid (maximum of 0.1 mmol in each container), and a variety of solutions were added to the containers, sometimes with pH adjustment. Thereafter, the containers were vortex mixed for 5 minutes, and solubility was analyzed visually.

Soluble? (Sample # 1: 10 mL deionized H2O, 11-15 mg boronic acid, vortex 5 minutes, visual): no
Soluble? (Sample # 2: 10 mL stock sorbitol (0.55 M)): yes
Soluble? (Sample # 3: 10 mL stock sorbitol, pH = 14): yes
Soluble? (Sample # 4: 200 μL stock sorbitol, 5 mL deionized H2O): no
Soluble? (Sample # 5: 5 mL deionized H2O, pH = 12.3): yes
Soluble? (Sample # 6: 1 mL stock sorbitol, 5 mL deionized H2O): no
Soluble? (Sample # 7: 2 mL stock sorbitol, 6 mL deionized H2O): no
Soluble? (Sample # 8: 200 μL stock sorbitol, 5 mL deionized H2O, pH = 10.6): no
Soluble? (Sample # 9: 2 mL stock sorbitol, 6 mL deionized H2O, pH = 11.0): yes
Soluble? (Sample # 10: 2 mL stock sorbitol, 10 mL deionized H2O, pH = 10.4): yes
Soluble? (Sample # 11: 10 mL deionized H2O, pH = 9.8): no
Soluble? (Sample # 12: 2 mL stock sorbitol, 10 mL deionized H2O, pH = 9.2): no
Soluble? (Sample # 13: 2 mL stock sorbitol, 10 mL deionized H2O, pH = 9.4): yes
SMILES: C=Cc1ccc(B(O)O)cc1 [4-vinylphenyl boronic acid]
